Experiment: Particle size of temozolomide drug substance entering the composition
Type: physicochemical
Excerpt: Characteristically, the composition of temozolomide according to the invention further contains at least one agent controlling the solid state of temozolomide in suspension. Indeed and during the development of the compositions of the invention, the Applicants observed an erratic recrystallisation of temozolomide after reconstitution of some suspensions with water. […] The recrystallisation triggered dose inhomogeneity within the suspensions, with large crystals settling down the bottom of the bottle or container. Furthermore, large crystals tended to clog the syringe for oral administration. This recrystallisation phenomenon was also observed in compositions containing povidone, the excipient used in the hospital-compounded formulations developed by Trissel et al. and Ambados et al.

Cn1nnc2c(C(N)=O)ncn2c1=O [temozolomide, 3-methyl-4-oxoimidazo[5,1-d][1,2,3,5]tetrazine-8-carboxamide]
particle size d90: < 100 μm

From patent US11730732B2, “Oral suspension of temozolomide” (Orphelia Pharma, priority 2018, dated 2023)
